The target in this test is T1, ABL1 H396P (Homo sapiens, UniProt P00519, H396P).
T1 construct: purchased Thermo Fisher Scientific (Life Technologies) SelectScreen
In words: SelectScreen LanthaScreen. The conditions noted are these: read-out: % displacement. The test is classed as binding. The method in brief: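 NU5455 was profiled across the SelectScreen Broad panel of kinase activity and binding assays. Z'LYTE reactions such as CSF1R ran at apparent Km ATP, while the Adapta CAMK1 assay used ATP listed as 10. Values are given as percent.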

Take `CN(C(=O)CN1CCOCC1)c1ccc2sc3c(-c4cccc5c(=O)cc(N6CC7CCC(C6)O7)oc45)cccc3c2c1` [NU5455]: the inhibition at 1 µM came to 0.6%.

The values above are taken from paper PMC6934184, “Selective DNA-PKcs inhibition extends the therapeutic index of localized radiotherapy and chemotherapy” (The Journal of Clinical Investigation, 2019).
